Patent publication US9126891B2, “Cycloalkyl-diamines” (MediSynergics, LLC, priority 2014, dated 2015)

Key:
[1] = system: T. brucei brucei clone 427-221a (bloodstream forms); assay: T. brucei brucei growth inhibition assay (CellTiter-Glo ATP bioluminescence); assay type: cell-based; details: 40 hours incubation, 95% Confidence Intervals in parentheses, read-out: T. b. brucei IC50
Procedure: The growth inhibition assay for T. brucei brucei was conducted as described previously by Z. B. Mackey (Kenny K. H. Ang, Joseline Ratnam, Jiri Gut, Jennifer Legac, Elizabeth Hansell, Zachary B. Mackey, Katarzyna M. Skrzypczynska, Anjan Debnath, Juan C. Engel, Philip J. Rosenthal, James H. McKerrow, Michelle R. Arkin, Adam R. Renslo (2010) “Mining a Cathepsin Inhibitor Library for New Antiparasitic Drug Leads”, PLoS Neglected Tropical Diseases, 5(5):e1023). Bloodstream forms of the monomorphic T. brucei brucei clone 427-221a were grown in complete HMI-9 medium containing 10% FBS, 10% Serum Plus medium (Sigma Inc., St. Louis, Mo., USA), 50 U/mL penicillin and […] streptomycin (Invitrogen) at 370 C under a humidified atmosphere and 5% CO2. […] of each dilution was added to […] of diluted parasites ([…]) in sterile Greiner 96-well flat white opaque culture plates such that the final DMSO concentration was 0.5%. The 0% inhibition control wells contained 0.5% DMSO while 100% inhibition control wells contained 50 mM thimerosal (Sigma-Aldrich, St. Louis, Mo.). After compound addition, plates were incubated for 40 hours at 370 C. At the end of the incubation period, […] of CellTiter-Glo™ reagent (Promega Inc., Madison, Wis., USA) was added to each well and plates were placed on an orbital shaker at room temperature for 2 min to induce lysis. After an additional 10 min of incubation without shaking, to stabilize the signal, the ATP-bioluminescence of each well was determined using an Analyst HT Plate Reader (Molecular Devices, Sunnyvale, Calif., USA). Raw values were converted to log 10 and percentage inhibition calculated relative to the controls. IC50 curve fittings were performed with Prism 4 software as above. Pentamidine was used as a comparator in the assay.

[2] = system: P. falciparum strain 3D7; assay: Plasmodium falciparum activity assay (SYBR Green I method); assay type: cell-based; details: strain 3D7 in human erythrocytes, 72 h incubation
Procedure: P. falciparum strain 3D7 was cultured according to the method of Trager and Jensen (W. Trager, J. B. Jensen (1976) “Human malaria parasites in continuous culture”, Science, 193(4254):673-5) with minor modifications. Parasites were grown in human erythrocytes (2% hematocrit) in an atmosphere of 5% CO2, 5% O2, 90% N2 in RPMI 1640 medium (Gibco) supplemented with 25 mM hepes buffer (Sigma), 25 mg/L gentamicin (Gibco, Life Technologies, Grand Island, N.Y.), 1 mM sodium pyruvate (Sigma), 50 mg/L hypoxanthine (Sigma), 2 g/L glucose (Sigma), 2.52 g/L sodium bicarbonate (Sigma) and 5 g/L Albumax 1 (Gibco). In vitro antimalarial activity was determined by the SYBR Green I method described by Smilkstein (Smilkstein M, Sriwilaijaroen N, Kelly J X, Wilairat P, Riscoe M. (2004) “Simple and inexpensive fluorescence-based technique for high-throughput antimalarial drug screening”. Antimicrob. Agents Chemother., 48(5):1803-6. PMCID: 400546) with modifications (see Winter R W, Kelly J X, Smilkstein M J, Dodean R, Bagby G C, Rathbun R K (2006) “Evaluation and lead optimization of anti-malarial acridones”. Exp. Parasitol., 114(1):47-56). […] After incubation for 1 h at room temperature in the dark, plates were read on a Safire2 (Tecan) plate reader with excitation and emission wavelengths of […], respectively. […]

Structure (SMILES)	IC50 [1]	IC50 [2]
CN[C@]1(c2ccccc2Cl)CCCC[C@H]1NCCCn1ccnc1 (relative stereo) [Example 12a, Trans-1-(2-chlorophenyl)-N^2-(3-(1-imidazolyl)-propyl)-N^1-methylcyclohexane-1,2-diamine]	16 µM	
CN[C@@]1(c2ccccc2Cl)CCCC[C@H]1NCCCc1ccccc1 (relative stereo) [Example 15b, Cis-1-(2-chlorophenyl)-N^2-(3-phenylpropyl)-N^1-methylcyclohexane-1,2-diamine]	4.6 µM	2.5 µM
CN[C@@]1(c2ccccc2Cl)CCCC[C@H]1NCCCN1CCOCC1 (relative stereo) [Example 16b, Cis-1-(2-chlorophenyl)-N^2-(3-(morpholin-1-yl)propyl)-N^1-methylcyclohexane-1,2-diamine]	1.7 µM	18 µM
